Data: patent US12239132B2, “Compounds and methods for increasing soil nutrient availability” (SOUND AGRICULTURE COMPANY, priority 2018, dated 2025)
Entries after “also recorded” stand apart in the source; their conditions may differ.

Experiments:
[1] = tested on: lettuce; experiment: Field trials in lettuce; type: in vivo; details: field trial
[2] = tested on: tomato; experiment: Field trials in tomato; type: in vivo
Description: Field trials show both increasing yield and larger, higher quality fruits. Tomato yields were increased by up to 40% in California field trials.

[3] = tested on: corn; experiment: Corn field trials in Iowa, nitrogen deficiency; type: in vivo
Description: In some instances, disclosed herein is a field trial of AB09 application to corn plants.
In some instances, disclosed herein is an aerial photograph description of a large scale strip field trial of corn plants applied with a compound, formulation, method, container, or kit disclosed herein, for example AB09. […] Greener (less yellow) coloring is indicative of healthier plants.
AB09 was applied to Buckingham, Iowa corn plots at the start of the season. In some instances, disclosed herein is a photo of corn at stage R3, with a treated plot on the right, and an untreated plot […]. Leaf firing (yellowing on the lower leaves) is apparent on the untreated plot, where AB09 plants are greener. In some instances, disclosed herein is an aerial image of treated and untreated plots at tasseling. […] Nitrogen content was quantified using a standard tissue sampling test to measure percent nitrogen content in leaf tissue samples.

[4] = tested on: innate soil microbes; experiment: Phosphate solubilization in commercial potting soil, sterile vs non-sterile; type: cell-based; details: 12 days
Experimental: In some aspects, a compound disclosed herein, e.g., AB09, stimulates phosphate solubilization of innate soil microbes. The induced phosphate solubilization enhancement was tested for in plant-free soil, which contains an innate diverse microflora of bacteria and fungi. Soil was evenly distributed into pots, half of which were pressure-sterilized in an autoclave. Half of the sterile and half of the non-sterile soil received a treatment. Control pots received a mock treatment. Pots were covered, incubated at room temperature, and orthophosphate levels were measured after twelve days. […] Three replicates of 20 mg air dried soil were measured from each pot and placed into 1.5 mL eppendorf tubes. […] In some instances, disclosed herein are measured phosphate levels at 12 days post treatment. […]
The effect of AB09 on a soil microbiome's innate ability to solubilize phosphorus was tested using commercially available soil, which contains a diverse microflora of bacteria. […] After 12 days of incubation soil phosphorus was extracted using the Bray-1P method and quantified using the malachite green assay.
Phosphate levels at 12 days post treatment. […] Orthophosphate was measured using the malachite-green phosphate method.
Orthophosphate was measured using the malachite-green phosphate method (BioAssay Systems Malachite Green Phosphate Assay Kit Catalog No: POMG-25H). […] Data are quantified on a plate reader at 620 nm. […]

## CC1=CC(Oc2c(C)occc2=O)OC1=O (stereo not shown) [AB09, maltol lactone]
[1]
  average size of lettuce heads: increased the average size
  increase in lettuce harvest weight: 25%
[2]; California field trials
  increase of tomato yields: up to 40%
[2]; treated plants
  tomato fruit size and number: larger and more numerous fruits
[3]; Buckingham, Iowa corn plots, stage R3, vs untreated plot
  leaf firing (yellowing of the lower leaves) of corn: greener; also recorded: reduced leaf firing
[3]; compared to a control sample
  nitrogen content in corn leaf tissue samples: higher leaf nitrogen content
[3]; large scale strip field trial, aerial photograph, vs control plants
  yellowing of corn plants at de-tassling: reduced yellowing
[3]; treated strip vs untreated plot
  NDVI of plots at tasseling (aerial image): higher NDVI values
[4]; 24 ug/mL in 1% DMSO, 25 mL per pot, Bray-P1 extraction, vs non-sterile control
  level of orthophosphate in non-sterile soil: significantly increased
[4]; autoclaved soil, 24 ug/mL
  AB09-induced phosphorus enhancement in sterile soil: not observed
